# Test results reported in patent US11021521B2, “Pore-modified gram-negative bacteria and uses thereof” (priority 2015, dated 2021).
# Like-named read-outs stand apart in the source and are kept apart here. Bridge positions count the residues as written; N and C are the ends. Square brackets hold non-standard residues; d marks the D form. Peptide text beside a SMILES is read from it. * marks the point of attachment. Ileψ(thiazoline)Cys = CC[C@H](C)[C@H](N)C1=N[C@H](C(=O)*)CS1; dOrn = NCCC[C@@H](N)C(=O)O
# Tests used:
# Assay in all cases: microbe, parasite or virus in culture
# Format in all cases: cell-based
# [1] = test system: B. thailandensis BtΔ2-RHA-BtPore (efflux-deficient, hyperporinated); conditions: Burkholderia thailandensis
# [2] = test system: A. baumannii Ab-ARA-EcPore (hyperporinated); conditions: Acinetobacter baumannii; Ab-ARA-EcPore; at least three independent measurements; read-out: MIC
# [3] = test system: B. cepacia Bc-RHA (wild type, empty cassette); conditions: Burkholderia cepacia, read-out: MIC
# [4] = test system: P. aeruginosa PAO1-LAC-EcPore (hyperporinated); conditions: Pseudomonas aeruginosa; PAO1-LAC-EcPore; at least three independent measurements; read-out: MIC
# [5] = test system: A. baumannii AbΔ3-ARA (efflux-deficient); conditions: Acinetobacter baumannii; AbΔ3-ARA; at least three independent measurements; read-out: MIC
# [6] = test system: A. baumannii AbΔ3-ARA-EcPore (efflux-deficient, hyperporinated); conditions: Acinetobacter baumannii; AbΔ3-ARA-EcPore; at least three independent measurements; read-out: MIC
# [7] = test system: A. baumannii Ab-ARA (wild type, empty cassette); conditions: Acinetobacter baumannii, at least three independent measurements, read-out: MIC
# [8] = test system: B. thailandensis BtΔ2-RHA (efflux-deficient); conditions: Burkholderia thailandensis
# [9] = test system: B. thailandensis Bt-RHA-BtPore (hyperporinated)
# [10] = test system: P. aeruginosa PAO1-LAC (wild type, empty cassette); conditions: Pseudomonas aeruginosa, at least three independent measurements, read-out: MIC
# [11] = test system: B. cepacia Bc-RHA-BtPore (hyperporinated); conditions: Burkholderia cepacia; Bc-RHA-BtPore; read-out: MIC
# [12] = test system: B. thailandensis Bt-RHA (wild type, empty cassette)
# [13] = test system: P. aeruginosa PaΔ3-LAC-EcPore (efflux-deficient, hyperporinated); conditions: Pseudomonas aeruginosa; PaΔ3-LAC-EcPore; at least three independent measurements; read-out: MIC
# [14] = test system: P. aeruginosa PaΔ3-LAC (efflux-deficient); conditions: Pseudomonas aeruginosa, at least three independent measurements, read-out: MIC
SMILES,MIC [1] [µg/mL],MIC [2] [µg/mL],MIC [3] [µg/mL],MIC [4] [µg/mL],MIC [5] [µg/mL],MIC [6] [µg/mL],MIC [7] [µg/mL],MIC [8] [µg/mL],MIC ([9]; Burkholderia thailandensis) [µg/mL],MIC [10] [µg/mL],MIC [11] [µg/mL],MIC ([12]; Burkholderia thailandensis) [µg/mL],MIC [13] [µg/mL],MIC [14] [µg/mL],MIC [12] [µg/mL],MIC [9] [µg/mL]
NCC[C@H](O)C(=O)N[C@@H]1C[C@H](N)[C@@H](O[C@H]2O[C@H](CN)[C@@H](O)[C@H](O)[C@H]2O)[C@H](O)[C@H]1O[C@H]1O[C@H](CO)[C@@H](O)[C@H](N)[C@H]1O [Amikacin],2,4,128,2,4,4,8,4,256,2,8,256,,,,
CC1(C)S[C@@H]2[C@H](NC(=O)[C@H](N)c3ccccc3)C(=O)N2[C@H]1C(=O)O [Ampicillin],,,,16,,,2050,,,,512,,,,,
CC[C@H]1OC(=O)[C@H](C)[C@@H](O[C@H]2C[C@@](C)(OC)[C@@H](O)[C@H](C)O2)[C@H](C)[C@@H](O[C@@H]2O[C@H](C)C[C@H](N(C)C)[C@H]2O)[C@](C)(O)C[C@@H](C)CN(C)[C@H](C)[C@@H](O)[C@]1(C)O [Azithromycin],0.032,0.04,64,4,0.31,0.08,0.31,1,64,,1 to 2,128,0.063,4,,
CC[C@H](C)[C@H](N)C1=N[C@H](C(=O)N[C@@H](CC(C)C)C(=O)N[C@H](CCC(=O)O)C(=O)N[C@H](C(=O)N[C@H]2CCCCNC(=O)[C@H](CC(N)=O)NC(=O)[C@@H](CC(=O)O)NC(=O)[C@H](Cc3cnc[nH]3)NC(=O)[C@@H](Cc3ccccc3)NC(=O)[C@H]([C@@H](C)CC)NC(=O)[C@@H](CCCN)NC2=O)[C@@H](C)CC)CS1 [Bacitracin] ({Ileψ(thiazoline)Cys}-L[dE]IK[dOrn]I[dF]H[dD]N; lactam 4-C),8,32,> 1020,64,512,64,256,1020,1020,> 1020,16,> 1020,64,> 1020,,
CC1(C)S[C@@H]2[C@H](NC(=O)C(C(=O)O)c3ccccc3)C(=O)N2[C@H]1C(=O)O (some centres unmarked) [Carbenicillin],8,32,> 1020,2,2050,64,2050,256,256,,128,,0.125,1,256 to 512,
O=C(N[C@H](CO)[C@H](O)c1ccc([N+](=O)[O-])cc1)C(Cl)Cl [Chloramphenicol],1,8,16,2,8,4,32,4,8,,4,8,0.125,1,,
O=C(O)c1cn(C2CC2)c2cc(N3CCNCC3)c(F)cc2c1=O [Ciprofloxacin],,,1,,,,,,,,,,,,,
Cc1onc(-c2ccccc2Cl)c1C(=O)N[C@@H]1C(=O)N2[C@@H]1SC(C)(C)[C@@H]2C(=O)O [Cloxacillin],0.5,128,256,512,128,16,1020,32,,,4,256,8,128,,128 to 256
C[C@H]1c2cccc(O)c2C(=O)C2=C(O)[C@]3(O)C(=O)C(C(N)=O)=C(O)[C@@H](N(C)C)[C@@H]3[C@@H](O)[C@@H]21 [Doxycycline],0.01,0.02,6,,0.0016,0.0016,0.04,0.02,1.5,,3,3,,,,
